Source: patent US9790229B2, “Bruton's tyrosine kinase inhibitors” (priority 2009, dated 2017)
pIC50: −log10 of the molar value.

Biological target: BTK (Homo sapiens (Human), UniProt Q06187)
Assay: In vitro BTK kinase assay: BTK-POLYGAT-LS ASSAY
Details: not given

Chain of BTK (Q06187 whole entry): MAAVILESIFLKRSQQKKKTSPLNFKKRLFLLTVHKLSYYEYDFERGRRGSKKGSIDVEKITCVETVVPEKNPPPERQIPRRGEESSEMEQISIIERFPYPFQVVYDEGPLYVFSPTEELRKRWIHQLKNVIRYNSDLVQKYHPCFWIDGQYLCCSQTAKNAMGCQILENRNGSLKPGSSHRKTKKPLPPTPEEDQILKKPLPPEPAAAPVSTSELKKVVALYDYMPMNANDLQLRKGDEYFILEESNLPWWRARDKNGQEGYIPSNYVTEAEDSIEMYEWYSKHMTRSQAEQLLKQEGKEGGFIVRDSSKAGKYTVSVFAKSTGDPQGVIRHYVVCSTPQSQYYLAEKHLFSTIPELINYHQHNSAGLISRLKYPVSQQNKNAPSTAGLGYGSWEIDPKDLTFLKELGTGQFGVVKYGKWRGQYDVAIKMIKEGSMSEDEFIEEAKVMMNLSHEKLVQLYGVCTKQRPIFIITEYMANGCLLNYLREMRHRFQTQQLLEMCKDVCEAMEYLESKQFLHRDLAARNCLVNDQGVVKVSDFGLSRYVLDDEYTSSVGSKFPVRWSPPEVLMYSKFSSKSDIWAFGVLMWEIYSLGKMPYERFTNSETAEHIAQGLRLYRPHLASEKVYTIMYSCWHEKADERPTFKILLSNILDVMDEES

**Q.** O=C(NCC1(O)CCCCC1)Nc1cccc(C2CCCN(c3ncnc4[nH]ccc34)C2)c1 (stereo not shown) [compound 184] was tested. Which pIC50 did it give?
**A.** The pIC50 was 5.00 to 6.00.

**Q.** O=C(NCC1CCCCCC1)Nc1cccc(C2CCCN(c3ncnc4[nH]ccc34)C2)c1 (stereo not shown) [compound 217] was tested. Which pIC50 did it give?
**A.** The pIC50 was 5.00 to 6.00.

**Q.** With O=C(Nc1ccc(F)cc1)Nc1cccc(C2CCCN(c3ncnc4[nH]ccc34)C2)c1 (stereo not shown) [compound 185] as the molecule, how does the pIC50 read?
**A.** The pIC50 was 5.00 to 6.00.

**Q.** How did the pIC50 turn out when CN(C)c1ccccc1NC(=O)Nc1cccc(C2CCCN(c3ncnc4[nH]ccc34)C2)c1 (stereo not shown) [Cmpd 34, 1-(3-(1-(7H-pyrrolo[2,3-d]pyrimidin-4-yl)piperidin-3-yl)phenyl)-3-(2-(dimethylamino)phenyl)urea] was run?
**A.** Its pIC50 is 5.00 to 6.00.

**Q.** CCOC(=O)c1cccc(NC2CCCN([C@@H]3CCCN(c4ncnc(N)c4F)C3)C2=O)c1 (stereo partly drawn) [compound 296, Ethyl 3-((3′R)-1′-(6-amino-5-fluoropyrimidin-4-yl)-2-oxo-1,3′-bipiperidin-3-ylamino) benzoate] was tested. Which pIC50 did it give?
**A.** Its pIC50 is 5.00 to 6.00.

**Q.** O=C(Nc1ccccc1)N[C@@H]1CCCN(C2CCCN(c3ncnc4[nH]ccc34)C2)C1 (stereo partly shown) [compound 205] was tested. Which pIC50 did it give?
**A.** Its pIC50 is 5.00 to 6.00.

**Q.** How did the pIC50 turn out when O=C(Nc1cccc(C2CCCN(c3ncnc4[nH]ccc34)C2)c1)Nc1ccccc1N1CCCCC1 (stereo not shown) [compound 175] was run?
**A.** The pIC50 was 6.00 to 7.00.

**Q.** With C[C@@H]1CCCN1c1ccccc1NC(=O)Nc1cccc(C2CCCN(c3ncnc4[nH]ccc34)C2)c1 (stereo partly shown) [compound 159] as the molecule, how does the pIC50 read?
**A.** Its pIC50 is 6.00 to 7.00.

**Q.** O=C(Nc1ccccc1)Nc1nc(C2CCCN(c3ncnc4[nH]ccc34)C2)cs1 (stereo not shown) [compound 116, 1-(4-(1-(7H-pyrrolo[2,3-d]pyrimidin-4-yl)piperidin-3-yl)thiazol-2-yl)-3-phenylurea] was tested. Which pIC50 did it give?
**A.** Its pIC50 is 5.00 to 6.00.

**Q.** O=C(Nc1cccc(C2CCCN(c3ncnc4[nH]ccc34)C2)c1)Nc1ccccc1N1CC[C@@H](F)C1 (stereo partly shown) [compound 162] was tested. Which pIC50 did it give?
**A.** Its pIC50 is 6.00 to 7.00.

**Q.** Nc1cc(N2CCCC(c3cccc(NC(=O)Nc4ccccc4)c3)C2)ncn1 (stereo not shown) [Cmpd 94, 1-(3-(1-(6-aminopyrimidin-4-yl)piperidin-3-yl)phenyl)-3-phenylurea] was tested. Which pIC50 did it give?
**A.** The pIC50 was 5.00 to 6.00.

**Q.** How did the pIC50 turn out when O=C(Nc1ccccc1)Nc1cccc(C2CCCN(c3ncnc4[nH]ccc34)C2)n1 (stereo not shown) [compound 118, 1-(6-(1-(7H-pyrrolo[2,3-d]pyrimidin-4-yl)piperidin-3-yl)pyridin-2-yl)-3-phenylurea] was run?
**A.** Its pIC50 is 5.00 to 6.00.

**Q.** How did the pIC50 turn out when Nc1ncnc(N2CC[C@@H](C(F)(F)F)[C@H](N3CCC[C@H](Nc4cc(Cl)cc(Cl)c4)C3=O)C2)c1F [compound 336, trans (3S)-1′-(6-Amino-5-fluoropyrimidin-4-yl)-3-(3,5-dichlorophenylamino)-4′-(trifluoromethyl)-1,3′-bipiperidin-2-one] was run?
**A.** The pIC50 was 5.00 to 6.00.

**Q.** How did the pIC50 turn out when O=C(Nc1cccc(C2CCN(c3ncnc4[nH]ccc34)C2)c1)Nc1ccccc1N1CCCC1 (stereo not shown) [compound 171] was run?
**A.** Its pIC50 is 6.00 to 7.00.

**Q.** How did the pIC50 turn out when O=C(Nc1cccc(C2CCCN(c3ncnc4[nH]ccc34)C2)c1)Nc1cccnc1F (stereo not shown) [compound 197] was run?
**A.** The pIC50 was 5.00 to 6.00.

**Q.** How did the pIC50 turn out when CC(C)CNC(=O)Nc1cccc(C2CCCN(c3ncnc4[nH]ccc34)C2)c1 (stereo not shown) [compound 212] was run?
**A.** Its pIC50 is 5.00 to 6.00.

**Q.** N#C/N=C(\Nc1cccc(C2CCCN(c3ncnc4[nH]ccc34)C2)c1)NC1CCCCC1 (stereo not shown) [Cmpd 75] was tested. Which pIC50 did it give?
**A.** Its pIC50 is 5.00 to 6.00.

Same assay, conditions: read-out: IC50 (10 uM ATP); 10 uM ATP; in vitro Btk kinase assay, Example 41

**Q.** CO[C@H]1CCN(c2ccccc2NC(=O)Nc2cccc(C3CCCN(c4ncnc5[nH]ccc45)C3)c2)C1 (stereo partly shown) [compound 157] was tested. Which pIC50 did it give?
**A.** The pIC50 was over 7.00.

**Q.** With FC(F)(F)c1ccc(Nc2cccc(C3CCCN(c4ncnc5[nH]ccc45)C3)c2)nc1 (stereo not shown) [compound 142, N-(3-(1-(7H-pyrrolo[2,3-d]pyrimidin-4-yl)piperidin-3-yl)phenyl)-5-(trifluoromethyl)pyridin-2-amine] as the molecule, how does the pIC50 read?
**A.** The pIC50 was under 5.00.

**Q.** How did the pIC50 turn out when CNc1cc(N2CCCC(c3cccc(NC(=O)Nc4ccccc4)c3)C2)ncn1 (stereo not shown) [Cmpd 95, 1-(3-(1-(6-(methylamino)pyrimidin-4-yl)piperidin-3-yl)phenyl)-3-phenylurea] was run?
**A.** Its pIC50 is under 5.00.

**Q.** With O=C1C(Nc2cc(F)cc(Cl)c2)CCCN1[C@H]1CN(c2ncnc3[nH]ccc23)CC[C@@H]1C(F)(F)F (stereo partly shown) [compound 352] as the molecule, how does the pIC50 read?
**A.** Its pIC50 is over 7.00.

**Q.** Nc1ncnc(N2CCC[C@@H](N3CCCC(NCc4ccccc4)C3=O)C2)c1F (stereo partly drawn) [compound 291, (3′R)-1′-(6-Amino-5-fluoropyrimidin-4-yl)-3-(benzylamino)-1,3′-bipiperidin-2-one] was tested. Which pIC50 did it give?
**A.** The pIC50 was under 5.00.

**Q.** COc1cccc(C(=O)Nc2cccc(C3CCCN(c4ncnc5[nH]ccc45)C3)c2)c1 (stereo not shown) [Cmpd 7, N-(3-(1-(7H-pyrrolo[2,3-d]pyrimidin-4-yl)piperidin-3-yl)phenyl)-3-methoxybenzamide] was tested. Which pIC50 did it give?
**A.** Its pIC50 is under 5.00.

**Q.** O=C1C(NC2CCCCC2)CCCN1[C@@H]1CCCN(c2ncnc3[nH]ccc23)C1 (stereo partly drawn) [compound 304, (3′R)-3-(Cyclohexylamino)-1′-(7H-pyrrolo[2,3-d]pyrimidin-4-yl)-1,3′-bipiperidin-2-one] was tested. Which pIC50 did it give?
**A.** The pIC50 was under 5.00.

**Q.** CC(C)(C#N)c1ccccc1NC(=O)Nc1cccc(C2CCCN(c3ncnc4[nH]ccc34)C2)c1 (stereo not shown) [compound 260] was tested. Which pIC50 did it give?
**A.** Its pIC50 is under 5.00.

**Q.** Nc1ncnc(N2CCC[C@@H](N3CCCC(Nc4cc(Cl)cc(Cl)c4)C3=O)C2)c1F (stereo partly drawn) [compound 278, (3′R)-1′-(6-amino-5-fluoropyrimidin-4-yl)-3-(3,5-dichlorophenylamino)-1,3′-bipiperidin-2-one] was tested. Which pIC50 did it give?
**A.** The pIC50 was over 7.00.

**Q.** With O=C(Nc1cccc(C2CCCN(c3ncnc4[nH]ccc34)C2)c1)Nc1ccccc1N1C[C@@H](O)[C@@H](O)C1 (stereo partly shown) [compound 148] as the molecule, how does the pIC50 read?
**A.** The pIC50 was over 7.00.

**Q.** With CN1CCC(O)(CNC(=O)Nc2cccc(C3CCCN(c4ncnc5[nH]ccc45)C3)c2)CC1 (stereo not shown) [compound 235] as the molecule, how does the pIC50 read?
**A.** Its pIC50 is under 5.00.

**Q.** With Nc1ncnc(N2CC[C@@H](F)[C@H](N3CCC[C@@H](Nc4cc(F)cc(Cl)c4)C3=O)C2)c1F [compound 342, (3R,3′R,4′R)-1′-(6-amino-5-fluoropyrimidin-4-yl)-3-(3-chloro-5-fluorophenylamino)-4′-fluoro-1,3′-bipiperidin-2-one] as the molecule, how does the pIC50 read?
**A.** The pIC50 was under 5.00.

**Q.** CC(C)(C)NC1CCCN([C@@H]2CCCN(c3ncnc(N)c3F)C2)C1=O (stereo partly drawn) [compound 290, (3′R)-1′-(6-Amino-5-fluoropyrimidin-4-yl)-3-(tert-butylamino)-1,3′-bipiperidin-2-one] was tested. Which pIC50 did it give?
**A.** Its pIC50 is under 5.00.

**Q.** With Nc1ncnc(N2CCC[C@@H](N3CC=CC[C@@H](Nc4cc(F)cc(Cl)c4)C3=O)C2)c1F [compound 347, (R,Z)-1-((R)-1-(6-amino-5-fluoropyrimidin-4-yl)piperidin-3-yl)-3-(3-chloro-5-fluorophenylamino)-3,4-dihydro-1H-azepin-2(7H)-one] as the molecule, how does the pIC50 read?
**A.** Its pIC50 is over 7.00.

**Q.** With O=C(Nc1cccc(C2CCCN(c3ncnc4[nH]ccc34)C2)c1)NC1CCNC1 (stereo not shown) [compound 239] as the molecule, how does the pIC50 read?
**A.** The pIC50 was under 5.00.

**Q.** With O=C(Nc1csc(C2CCCN(c3ncnc4[nH]ccc34)C2)n1)Nc1ccccc1N1CCCC1 (stereo not shown) [compound 107, 1-(2-(1-(7H-pyrrolo[2,3-d]pyrimidin-4-yl)piperidin-3-yl)thiazol-4-yl)-3-(2-(pyrrolidin-1-yl)phenyl)urea] as the molecule, how does the pIC50 read?
**A.** Its pIC50 is over 7.00.

**Q.** c1cnc(Nc2cccc(C3CCCN(c4ncnc5[nH]ccc45)C3)c2)nc1 (stereo not shown) [compound 141, N-(3-(1-(7H-pyrrolo[2,3-d]pyrimidin-4-yl)piperidin-3-yl)phenyl)pyrimidin-2-amine] was tested. Which pIC50 did it give?
**A.** Its pIC50 is under 5.00.

**Q.** N[C@H](C(=O)Nc1cccc(C2CCCN(c3ncnc4[nH]ccc34)C2)c1)c1ccccc1 (stereo partly drawn) [Cmpd 20, (2S)—N-(3-(1-(7H-pyrrolo[2,3-d]pyrimidin-4-yl)piperidin-3-yl)phenyl)-2-amino-2-phenylacetamide] was tested. Which pIC50 did it give?
**A.** Its pIC50 is under 5.00.

**Q.** With O=C(Nc1cccc(C2CCCN(c3ncnc4[nH]ccc34)C2)c1)c1ccccn1 (stereo not shown) [compound 13, N-(3-(1-(7H-pyrrolo[2,3-d]pyrimidin-4-yl)piperidin-3-yl)phenyl)picolinamide] as the molecule, how does the pIC50 read?
**A.** The pIC50 was under 5.00.

**Q.** O=C(Nc1cccc(C2CCCN(c3ncnc4[nH]ccc34)C2)c1)c1ccccc1Cl (stereo not shown) [Cmpd 5, N-(3-(1-(7H-pyrrolo[2,3-d]pyrimidin-4-yl)piperidin-3-yl)phenyl)-2-chlorobenzamide] was tested. Which pIC50 did it give?
**A.** The pIC50 was under 5.00.

**Q.** O=C(Nc1cccc(C2CN(c3ncnc4[nH]ccc34)CCN2CCO)c1)Nc1c(F)cccc1N1CCCC1 (stereo not shown) [compound 135, 1-(2-Fluoro-6-(pyrrolidin-1-yl)phenyl)-3-(3-(1-(2-hydroxyethyl)-4-(7H-pyrrolo[2,3-d]pyrimidin-4-yl)piperazin-2-yl)phenyl)urea] was tested. Which pIC50 did it give?
**A.** The pIC50 was over 7.00.

**Q.** Nc1ncnc(N2C[C@@H](O)C[C@@H](N3CCCC(Nc4cc(Cl)cc(Cl)c4)C3=O)C2)c1F (stereo partly drawn) [compound 283, (3′R,5′S)-1′-(6-Amino-5-fluoropyrimidin-4-yl)-3-(3,5-dichlorophenylamino)-5′-hydroxy-1,3′-bipiperidin-2-one] was tested. Which pIC50 did it give?
**A.** The pIC50 was over 7.00.

**Q.** CN1CCCCC1CNC(=O)Nc1cccc(C2CCCN(c3ncnc4[nH]ccc34)C2)c1 (stereo not shown) [compound 228] was tested. Which pIC50 did it give?
**A.** Its pIC50 is under 5.00.

**Q.** With O=C(Nc1cccc(C2CCCN(c3ncnc4[nH]ccc34)C2)c1)Nc1ccccc1N1CC[C@H](O)C1 (stereo partly shown) [compound 155] as the molecule, how does the pIC50 read?
**A.** Its pIC50 is over 7.00.

**Q.** With O=C(Nc1ccccc1)N[C@H]1CCCN(C2CCCN(c3ncnc4[nH]ccc34)C2)C1 (stereo partly shown) [compound 237] as the molecule, how does the pIC50 read?
**A.** Its pIC50 is under 5.00.

**Q.** How did the pIC50 turn out when Cc1ccc(NC(=O)Nc2ccccc2)cc1C1CCCN(c2ncnc3[nH]ccc23)C1 (stereo not shown) [Cmpd 79, 1-(3-(1-(7H-pyrrolo[2,3-d]pyrimidin-4-yl)piperidin-3-yl)-4-methylphenyl)-3-phenylurea] was run?
**A.** The pIC50 was under 5.00.

**Q.** With CCOC(=O)/C=C/c1c(N)ncnc1N1CCCC(c2cccc(NC(=O)Nc3ccccc3)c2)C1 (stereo not shown) [compound 221] as the molecule, how does the pIC50 read?
**A.** The pIC50 was under 5.00.

**Q.** O=C(Nc1ccccc1)N[C@H]1CCN(C2CCCN(c3ncnc4[nH]ccc34)C2)C1 (stereo partly shown) [compound 256] was tested. Which pIC50 did it give?
**A.** Its pIC50 is under 5.00.

**Q.** O=c1c(Nc2ccc(Cl)cc2)c(Nc2cccc(C3CCCN(c4ncnc5[nH]ccc45)C3)c2)c1=O (stereo not shown) [Cmpd 70, 3-(3-(1-(7H-pyrrolo[2,3-d]pyrimidin-4-yl)piperidin-3-yl)phenylamino)-4-(4-chlorophenylamino)cyclobut-3-ene-1,2-dione] was tested. Which pIC50 did it give?
**A.** The pIC50 was under 5.00.

**Q.** How did the pIC50 turn out when O=C(Nc1cccc(C2CCCN(c3ncnc4[nH]ccc34)C2)c1)NC1CCNCC1 (stereo not shown) [compound 243] was run?
**A.** Its pIC50 is under 5.00.

**Q.** How did the pIC50 turn out when Nc1ncnc(N2CCC[C@@H](N3CCCC(Nc4cccc(C(=O)O)c4)C3=O)C2)c1F (stereo partly drawn) [compound 299, 3-((3′R)-1′-(6-Amino-5-fluoropyrimidin-4-yl)-2-oxo-1,3′-bipiperidin-3-ylamino)benzoic acid] was run?
**A.** The pIC50 was under 5.00.

**Q.** How did the pIC50 turn out when O=C1[C@H](Nc2cc(Cl)cc(Cl)c2)CCN1[C@@H]1CCCN(c2ncnc3[nH]ccc23)C1 [compound 323, (R)-1-((R)-1-(7H-Pyrrolo[2,3-d]pyrimidin-4-yl)piperidin-3-yl)-3-(3,5-dichlorophenylamino)pyrrolidin-2-one] was run?
**A.** The pIC50 was over 7.00.
